Experimental findings from patent publication US10590392B2, “Generation of airway epithelial organoids from human pluripotent stem cells” (TRUSTEES OF BOSTON UNIVERSITY, priority 2017, dated 2020) are described below.

The test deals with sorted NKX2-1GFP+ epithelial lung progenitors. Nature of the test: Purified NKX2-1GFP+ lung progenitors replated in 3D culture with or without CHIR, day 14 to 20. The test is classed as cell-based, human. On the procedure:
Cells grown in two-dimensional culture were harvested by incubation with 0.05% Trypsin-EDTA for 10-20 minutes at 37° C. Cells cultured in three-dimensional growth factor reduced Matrigel were harvested by incubation with 2 mg/mL dispase (ThermoFisher) for 30-60 minutes at 37° C. then subsequent incubation with 0.05% trypsin at 37° C. until a single cell suspension was achieved. Cells were washed with media containing 10% fetal bovine serum (FBS, ThermoFisher.) Harvested cells were spun at 300 RCF for 5 minutes at 4° C. and resuspended in buffer containing Hank's Balanced Salt Solution (ThermoFisher), 2% FBS and 10 μM Y-27632 (Tocris) and stained with propidium iodide (ThermoFisher) or calcein blue AM (ThermoFisher) for dead cell exclusion during flow cytometry. Live cells were sorted on a high speed cell sorter (MoFlo Legacy, Beckman Coulter, Pasadena, Calif.) at the Boston University Medical Center Flow Cytometry Core Facility based on NKX2-1GFP expression or by staining for CD47 (Biolegend) and CD26 (Biolegend) and gating for CD47^hi/CD26^−. […]
The final protocol for generating rapidly proximalized NKX2-1+ lung epithelium was replating unsorted or sorted cells for 4 days of culture post-specification in cSFDM containing 10 ng/mL FGF10. […] Cells were analyzed for expression of proximal markers 4 days post-replating in FGF10 media.
The inventors next assessed whether the effect of CHIR manipulation on proximodistal lung patterning was intrinsic to lung epithelial cells rather than due to secondary or bystander effects. […] By day 20, the sorted cells formed small spheres coexpressing NKX2-1 and EPCAM (FIG. 3B-3C). >90% of all outgrowth cells in either culture conditioned maintained NKX2-1^GFP (+CHIR: 98.2±0.5%−CHIR: 93.4±2.3%) (FIG. 3D-3E) and cells in each condition formed organoids with no measured statistical difference in efficiency.

The mark [1] stands for this setting: withdrawal of CHIR, re-sorted NKX2-1GFP+ cells at day 20.

Regarding `Cc1c[nH]c(-c2cnc(NCCNc3ccc(C#N)cn3)nc2-c2ccc(Cl)cc2Cl)n1` [CHIR, CHIR99021], for the setting “+CHIR day 14-20, 3D culture of sorted cells, flow cytometry, −CHIR: 93.4±2.3%”, the “outgrowth cells maintaining NKX2-1GFP on day 20” value came to 98.2±0.5%. In addition, under setting [1], the “expression of distal lung genes SOX9 and ETV5” value is on record as “downregulation”; the “expression of proximal lung genes SOX2, SCGB3A2, TP63” value is “upregulation”.
